# Test results published in US20260027116A1, “Methods of Treating Chronic Graft-Versus-Host Disease Following Allogeneic Hematopoietic Stem Cell Transplantation” (Kadmon Corporation, LLC, priority 2022, published 2026).
# Tested on: patients with cGVHD
# Details: Cohort 2 200 mg BID
smiles,measurement,value
"CC(C)NC(=O)COc1cccc(-c2nc(Nc3ccc4[nH]ncc4c3)c3ccccc3n2)c1 [Belumosudil, 2-{3-[4-(1H-indazol-5-ylamino)-2-quinazolinyl]phenoxy}-N-(propan-2-yl) acetamide]",Macular degeneration: Affected/At Risk (%),1/16 (6.25%)
same,Migraine: # Events,1
same,Migraine: Affected/At Risk (%),1/16 (6.25%)
same,Muscle spasms: # Events,0
same,Muscle spasms: Affected/At Risk (%),0/16 (0%)
same,Muscle spasticity: # Events,0
same,Muscle spasticity: Affected/At Risk (%),0/16 (0%)
same,Muscular weakness: # Events,1
same,Muscular weakness: Affected/At Risk (%),1/16 (6.25%)
same,Musculoskeletal chest pain: # Events,0
same,Musculoskeletal chest pain: Affected/At Risk (%),0/16 (0%)
same,Myalgia: # Events,1
same,Myalgia: Affected/At Risk (%),1/16 (6.25%)
same,Nail disorder: # Events,0
same,Nail disorder: Affected/At Risk (%),0/16 (0%)
same,Nasal congestion: Affected/At Risk (%),0/16 (0%)
same,Nausea: # Events,6
same,Nausea: Affected/At Risk (%),4/16 (25%)
same,Neck pain: # Events,0
same,Neck pain: Affected/At Risk (%),0/16 (0%)
same,Nephrotic syndrome: # Events,1
same,Nephrotic syndrome: Affected/At Risk (%),1/16 (6.25%)
same,Neuropathy peripheral: # Events,1
same,Neuropathy peripheral: Affected/At Risk (%),1/16 (6.25%)
same,Neutrophil count decreased: # Events,0
same,Neutrophil count decreased: Affected/At Risk (%),0/16 (0%)
same,Nocturia: # Events,0
same,Nocturia: Affected/At Risk (%),0/16 (0%)
same,Non-cardiac chest pain: # Events,3
same,Non-cardiac chest pain: Affected/At Risk (%),3/16 (18.75%)
same,Obesity: # Events,0
same,Obesity: Affected/At Risk (%),0/16 (0%)
same,Oedema peripheral: # Events,5
same,Oedema peripheral: Affected/At Risk (%),4/16 (25%)
same,Oedema: # Events,1
same,Oedema: Affected/At Risk (%),1/16 (6.25%)
same,Oesophageal ulcer: # Events,1
same,Oesophageal ulcer: Affected/At Risk (%),1/16 (6.25%)
same,Oral candidiasis: # Events,1
same,Oral candidiasis: Affected/At Risk (%),1/16 (6.25%)
same,Oropharyngeal pain: # Events,0
same,Oropharyngeal pain: Affected/At Risk (%),0/16 (0%)
same,Orthopnoea: # Events,0
same,Orthopnoea: Affected/At Risk (%),0/16 (0%)
same,Osteonecrosis: # Events,0
same,Osteonecrosis: Affected/At Risk (%),0/16 (0%)
same,Osteopenia: # Events,1
same,Osteopenia: Affected/At Risk (%),1/16 (6.25%)
same,Osteoporosis: # Events,1
same,Osteoporosis: Affected/At Risk (%),1/16 (6.25%)
same,Overdose: # Events,0
same,Overdose: Affected/At Risk (%),0/16 (0%)
same,Pain in extremity: # Events,3
same,Pain in extremity: Affected/At Risk (%),2/16 (12.5%)
same,Pain: # Events,0
same,Pain: Affected/At Risk (%),0/16 (0%)
same,Palpitations: # Events,0
same,Palpitations: Affected/At Risk (%),0/16 (0%)
same,Paraesthesia: # Events,1
same,Paraesthesia: Affected/At Risk (%),1/16 (6.25%)
same,Pericardial effusion: # Events,0
same,Pericardial effusion: Affected/At Risk (%),0/16 (0%)
same,Peripheral coldness: # Events,0
same,Peripheral coldness: Affected/At Risk (%),0/16 (0%)
same,Peripheral sensory neuropathy: # Events,1
same,Peripheral sensory neuropathy: Affected/At Risk (%),1/16 (6.25%)
same,Phlebitis: # Events,1
same,Phlebitis: Affected/At Risk (%),1/16 (6.25%)
same,Photophobia: # Events,1
same,Photophobia: Affected/At Risk (%),1/16 (6.25%)
same,Platelet count decreased: # Events,0
same,Platelet count decreased: Affected/At Risk (%),0/16 (0%)
same,Pleural effusion: # Events,0
same,Pleural effusion: Affected/At Risk (%),0/16 (0%)
same,Pneumonia respiratory syncytial viral: # Events,1
same,Pneumonia respiratory syncytial viral: Affected/At Risk (%),1/16 (6.25%)
same,Pneumonia: # Events,3
same,Pneumonia: Affected/At Risk (%),3/16 (18.75%)
same,Pollakiuria: # Events,0
same,Pollakiuria: Affected/At Risk (%),0/16 (0%)
same,Presyncope: # Events,3
same,Presyncope: Affected/At Risk (%),3/16 (18.75%)
same,Productive cough: # Events,7
same,Productive cough: Affected/At Risk (%),2/16 (12.5%)
same,Proteinuria: # Events,1
same,Proteinuria: Affected/At Risk (%),1/16 (6.25%)
same,Pruritus: # Events,4
same,Pruritus: Affected/At Risk (%),2/16 (12.5%)
same,Pseudomonas infection: # Events,2
same,Pseudomonas infection: Affected/At Risk (%),1/16 (6.25%)
same,Pulmonary mass: # Events,1
same,Pulmonary mass: Affected/At Risk (%),1/16 (6.25%)
same,Pyrexia: # Events,6
same,Pyrexia: Affected/At Risk (%),3/16 (18.75%)
same,Rash erythematous: # Events,1
same,Rash erythematous: Affected/At Risk (%),1/16 (6.25%)
same,Rash maculo-papular: # Events,0
same,Rash maculo-papular: Affected/At Risk (%),0/16 (0%)
same,Rash pustular: # Events,1
same,Rash pustular: Affected/At Risk (%),1/16 (6.25%)
same,Rash: # Events,1
same,Rash: Affected/At Risk (%),1/16 (6.25%)
same,Red blood cells urine positive: # Events,1
same,Red blood cells urine positive: Affected/At Risk (%),1/16 (6.25%)
same,Renal failure: # Events,1
same,Renal failure: Affected/At Risk (%),1/16 (6.25%)
same,Respiratory syncytial virus infection: # Events,1
same,Respiratory syncytial virus infection: Affected/At Risk (%),1/16 (6.25%)
same,Respiratory tract infection fungal: # Events,0
same,Respiratory tract infection fungal: Affected/At Risk (%),0/16 (0%)
same,Respiratory tract infection: # Events,0
same,Respiratory tract infection: Affected/At Risk (%),0/16 (0%)
same,Restless legs syndrome: # Events,1
same,Restless legs syndrome: Affected/At Risk (%),1/16 (6.25%)
same,Rosacea: # Events,1
same,Rosacea: Affected/At Risk (%),1/16 (6.25%)
same,"SAE, No. (%)",6 (38)
same,Sinus pain: # Events,0
same,Sinus pain: Affected/At Risk (%),0/16 (0%)
same,Sinusitis: # Events,4
same,Sinusitis: Affected/At Risk (%),2/16 (12.5%)
same,Skin abrasion: # Events,0
same,Skin abrasion: Affected/At Risk (%),0/16 (0%)
same,Skin lesion: # Events,1
same,Skin lesion: Affected/At Risk (%),1/16 (6.25%)
same,Skin papilloma: # Events,0
same,Skin papilloma: Affected/At Risk (%),0/16 (0%)
same,Spinal compression fracture: # Events,0
same,Spinal compression fracture: Affected/At Risk (%),0/16 (0%)
same,Squamous cell carcinoma of skin: # Events,2
same,Squamous cell carcinoma of skin: Affected/At Risk (%),2/16 (12.5%)
same,Stomatitis: # Events,1
same,Stomatitis: Affected/At Risk (%),1/16 (6.25%)
same,Superior vena cava syndrome: # Events,2
same,Superior vena cava syndrome: Affected/At Risk (%),1/16 (6.25%)
same,"TEAE, participants (%)",16 (100%) participants
same,"TESAE, participants (%)",6 (38%) participants
same,Tachycardia: # Events,0
same,Tachycardia: Affected/At Risk (%),0/16 (0%)
same,Tendonitis: # Events,1
same,Tendonitis: Affected/At Risk (%),1/16 (6.25%)
same,Testicular pain: # Events,0
same,Testicular pain: Affected/At Risk (%),0/16 (0%)
same,Testicular swelling: # Events,0
same,Testicular swelling: Affected/At Risk (%),0/16 (0%)
same,Thoracic spinal stenosis: # Events,0
same,Thoracic spinal stenosis: Affected/At Risk (%),0/16 (0%)
same,Thrombocytopenia: # Events,1
same,Thrombocytopenia: Affected/At Risk (%),1/16 (6.25%)
same,Thrombocytosis: # Events,0
same,Thrombocytosis: Affected/At Risk (%),0/16 (0%)
same,Tinea pedis: # Events,1
same,Tinea pedis: Affected/At Risk (%),1/16 (6.25%)
same,Tooth fracture: # Events,1
same,Tooth fracture: Affected/At Risk (%),1/16 (6.25%)
same,Total other adverse events: Affected/At Risk (%),16/16 (100%)
same,Transfusion reaction: # Events,0
same,Transfusion reaction: Affected/At Risk (%),0/16 (0%)
same,Tremor: # Events,2
same,Tremor: Affected/At Risk (%),1/16 (6.25%)
same,Type 2 diabetes mellitus: # Events,0
same,Type 2 diabetes mellitus: Affected/At Risk (%),0/16 (0%)
same,Ulcerative keratitis: # Events,1
same,Ulcerative keratitis: Affected/At Risk (%),1/16 (6.25%)
same,Upper respiratory tract infection: # Events,13
same,Upper respiratory tract infection: Affected/At Risk (%),9/16 (56.25%)
same,Upper-airway cough syndrome: # Events,2
same,Upper-airway cough syndrome: Affected/At Risk (%),2/16 (12.5%)
same,Urinary retention: # Events,2
